Patent US20040149200A1, “Crystals of an oligosaccharides and process for preparation thereof” (priority 2001, published 2004)

Test: Storage stability of Oligosaccharide Crystals (I) and freeze-dried Oligosaccharide (I) powders (residual rate by HPLC)
Format: physicochemical
Settings: 105° C. in the atmosphere under ordinary pressure
Experimental: The storage stability of Oligosaccharide Crystals (I) obtained in Examples 1 to 3 and freeze-dried Oligosaccharide (I) powders obtained in Reference Examples 1 to 3 was examined by keeping them at 105° C. in the atmosphere under ordinary pressure for 20 days and measuring the residual rate of Oligosaccharides (I).
The residual rate of Oligosaccharides (I) in the samples was measured by high performance liquid chromatography (HPLC) and expressed in terms of HPLC purity (%)
Measurement conditions for HPLC are as follows.
Analyzer: product of Dionex Corporation
Column temperature: 30° C.
Mobile phase: 10-100% aqueous solution of NaOH
(500 mmol/L) (Gradient elution in 11 minutes)
Detection: electrochemical detection (PAD method)

CC(=O)N[C@H]1[C@H](O[C@H]2[C@@H](O)[C@@H](CO)O[C@@H](O[C@H]3[C@H](O)[C@@H](O)C(O)O[C@@H]3CO)[C@@H]2O)O[C@H](CO)[C@@H](O)[C@@H]1O (stereo partly drawn) [Crystals No. 1, GlcNAcβ1, 3Galβ1, 4Glc]
Residual rate of oligosaccharides: HPLC purity (%) (days that passed: 0): 98.0% | Residual rate of oligosaccharides: HPLC purity (%) (days that passed: 1): 99.7% | Residual rate of oligosaccharides: HPLC purity (%) (days that passed: 4): 99.7% | Residual rate of oligosaccharides: HPLC purity (%) (days that passed: 7): 99.7% | Residual rate of oligosaccharides: HPLC purity (%) (days that passed: 20): 98.9%

CC(=O)N[C@H]1[C@H](O[C@H]2[C@@H](O)[C@@H](CO)O[C@@H](O[C@H]3[C@H](O)[C@@H](O)C(O)O[C@@H]3CO)[C@@H]2O)O[C@H](CO)[C@@H](O[C@@H]2O[C@H](CO)[C@H](O)[C@H](O)[C@H]2O)[C@@H]1O (stereo partly drawn) [Crystals No. 2, Galβ1, 4GlcNAcβ1, 3Galβ1, 4Glc]
Residual rate of oligosaccharides: HPLC purity (%) (days that passed: 0): 99.3% | Residual rate of oligosaccharides: HPLC purity (%) (days that passed: 1): 99.0% | Residual rate of oligosaccharides: HPLC purity (%) (days that passed: 4): 99.2% | Residual rate of oligosaccharides: HPLC purity (%) (days that passed: 7): 99.0% | Residual rate of oligosaccharides: HPLC purity (%) (days that passed: 20): 98.8%

CC(=O)N[C@H]1[C@H](O[C@H]2[C@@H](O)[C@@H](CO)O[C@@H](O[C@H]3[C@H](O)[C@@H](O)C(O)O[C@@H]3CO)[C@@H]2O)O[C@H](CO)[C@@H](O)[C@@H]1O (stereo partly drawn) [Freeze-dried GlcNAcβ1, 3Gal-β1, 4Glc powders] [GlcNAcβ1,3Galβ1,4Glc]
Residual rate of oligosaccharides: HPLC purity (%) (days that passed: 0): 99.8% | Residual rate of oligosaccharides: HPLC purity (%) (days that passed: 1): 99.7% | Residual rate of oligosaccharides: HPLC purity (%) (days that passed: 4): 97.0% | Residual rate of oligosaccharides: HPLC purity (%) (days that passed: 7): 98.8% | Residual rate of oligosaccharides: HPLC purity (%) (days that passed: 20): 93.8%

CC(=O)N[C@H]1[C@H](O[C@H]2[C@@H](O)[C@@H](CO)O[C@@H](O[C@H]3[C@H](O)[C@@H](O)C(O)O[C@@H]3CO)[C@@H]2O)O[C@H](CO)[C@@H](O[C@@H]2O[C@H](CO)[C@H](O)[C@H](O)[C@H]2O)[C@@H]1O (stereo partly drawn) [Freeze-dried Galβ1, 4GlcNAc-β1, 3Galβ1, 4Glc powders] [Galβ1,4GlcNAcβ1,3Galβ1,4Glc]
Residual rate of oligosaccharides: HPLC purity (%) (days that passed: 0): 99.3% | Residual rate of oligosaccharides: HPLC purity (%) (days that passed: 1): 98.6% | Residual rate of oligosaccharides: HPLC purity (%) (days that passed: 4): 97.6% | Residual rate of oligosaccharides: HPLC purity (%) (days that passed: 7): 96.2% | Residual rate of oligosaccharides: HPLC purity (%) (days that passed: 20): 90.9%

CC(=O)N[C@H]1[C@H](O[C@H]2[C@@H](O)[C@@H](CO)O[C@@H](O[C@H]3[C@H](O)[C@@H](O)C(O)O[C@@H]3CO)[C@@H]2O)O[C@H](CO)[C@@H](O[C@@H]2O[C@H](CO)[C@H](O)[C@H](O[C@@H]3O[C@H](CO)[C@@H](O)[C@H](O)[C@H]3NC(C)=O)[C@H]2O)[C@@H]1O (stereo partly drawn) [Crystals No. 3, GlcNAcβ1, 3Galβ1, 4GlcNAcβ1, 3Galβ1, 4Glc]
Residual rate of oligosaccharides: HPLC purity (%) (days that passed: 0): 98.8% | Residual rate of oligosaccharides: HPLC purity (%) (days that passed: 1): 99.3% | Residual rate of oligosaccharides: HPLC purity (%) (days that passed: 4): 99.0% | Residual rate of oligosaccharides: HPLC purity (%) (days that passed: 7): 99.0% | Residual rate of oligosaccharides: HPLC purity (%) (days that passed: 20): 99.3%

CC(=O)N[C@H]1[C@H](O[C@H]2[C@@H](O)[C@@H](CO)O[C@@H](O[C@H]3[C@H](O)[C@@H](O)C(O)O[C@@H]3CO)[C@@H]2O)O[C@H](CO)[C@@H](O[C@@H]2O[C@H](CO)[C@H](O)[C@H](O[C@@H]3O[C@H](CO)[C@@H](O)[C@H](O)[C@H]3NC(C)=O)[C@H]2O)[C@@H]1O (stereo partly drawn) [Freeze-dried GlcNAcβ1, 3Gal-β1, 4GlcNAcβ1, 3Galβ1, 4Glc powd] [GlcNAcβ1,3Galβ1,4GlcNAcβ1,3Galβ1,4Glc]
Residual rate of oligosaccharides: HPLC purity (%) (days that passed: 0): 98.6% | Residual rate of oligosaccharides: HPLC purity (%) (days that passed: 1): 98.2% | Residual rate of oligosaccharides: HPLC purity (%) (days that passed: 4): 97.4% | Residual rate of oligosaccharides: HPLC purity (%) (days that passed: 7): 95.4% | Residual rate of oligosaccharides: HPLC purity (%) (days that passed: 20): 85.2%
